From EP1902732A1, “PROPHYLACTIC/THERAPEUTIC AGENT FOR HER2-EXPRESSING CANCER” (Takeda Pharmaceutical Company Limited, priority 2005, dated 2006)

How the values were obtained:
[1] = tested on: MAPK; test: Western blotting of phosphorylated MAPK in BT-474 cells; assay type: cell-based, human; details: Example 2, 4-fold dilution series from 1 µmol/L in 5 steps, 2 hours
Description: (§1) Human HER2-expressing human breast cancer cell line BT-474 (purchased from American Tissue Culture Collection (ATCC)) was seeded into a 24-multiwell plate (BT-474: 1.2 x 10^5 cells/well), and cultured overnight in a carbon dioxide gas incubator (5% CO2, 37°C). A 4-fold dilution series of a mitochondrial respiratory chain complex inhibiting compound (complex I: rotenone, complex III: antimycin, complex V: oligomycin: Wako Pure Chemical Industries) was added starting from a final concentration of 1 µmol/L in 5 steps while continuing culture. After 2 hours, the broth was removed, and the cells were lysed with an SDS sample buffer (200 µL). Western blotting analysis was performed as follows. Specifically, this cell lysate (8 µL) was separated by an SDS-PAGE method (gel concentration: 7.5-15%) (Analytical Biochemistry, No. 166, pp. 368-379, 1987), and transferred to a nitrocellulose membrane (BioRad). Then, an antibody specific to phosphorylated HER2 (Cell signaling technology, Code# 2244), an anti-phosphorylated Akt antibody specific to downstream antiapoptotic signal transducing molecule Akt (Cell signaling technology, Code# 9271) and an anti-phosphorylated MAPK antibody specific to downstream proliferation signal transducing molecule MAPK (Cell signaling technology, Code# 9101) were used to detect the antibody with an ECL system (Amersham) to quantify the amount of phosphorylated protein by an image analysis.
(§2) Human HER2-expressing human cancer cell line BT-474 (purchased from ATCC) was seeded into a 24-multiwell plate (1.2 x 10^5 cells/well) and cultured overnight in a carbon dioxide gas incubator (20% O2, 5% CO2, 37°C). A 3-fold dilution series of metformin that activates AMPK (The Journal of Biological Chemistry, Vol. 279, No. 42, pp. 43940-43951, 2004) was added starting from a final concentration of 15 mmol/L in 5 steps while continuing culture. Two hours later, the broth was removed and the cells were lysed with an SDS sample buffer (200 µL). This cell lysate (8 µL) was separated by an SDS-PAGE method (gel concentration: 7.5-15%) (Analytical Biochemistry, No. 166, pp. 368-379, 1987). Then, western blotting analysis was performed in the same manner as in Example 1 to quantify phosphorylated HER2, phosphorylated Akt and phosphorylated MAPK.

[2] = tested on: MDA-MB-231 breast cancer cell; test: Sulphorhodamine-B (SRB) cell proliferation assay; assay type: cell-based; details: Homo sapiens, MDA-MB-231, 120 h; HER2-nonexpressing cell; cultured for five days; SRB staining
Description: (§3) BT-474 breast cancer cell (purchased from ATCC) was used as a human HER2-expressing cell and MDA-MB-231 breast cancer cell (purchased from ATCC) was used as a HER2-nonexpressing cell. These cells were seeded into a 96-multiwell plate (BT-474: 3.0 x 10^4 cells/well, MDA-MB-231: 1.5 x 10^4 cells/well), and cultured overnight in a carbon dioxide gas incubator (5% CO2, 37°C). A 4-fold dilution series of a mitochondrial respiratory chain complex-inhibiting compound (complex I: rotenone) was added starting from a final concentration of 10 µmol/L in 10 steps, and further cultured for five days. At the end of culture, the broth containing rotenone was removed, the cells were washed with a phosphoric acid buffer, immobilized with 5% trichloroacetic acid solution, and added with 0.4% (W/V) sulphorhodamine-B (SRB) dye solution (dissolved in 1% acetic acid) for staining the cellular protein. Subsequently, the SRB dye solution was removed from the plate and the plate was washed with a 1% acetic acid solution. Then, 100 µL 10 mM Tris buffer solution was added for extraction and dye dissolution, and absorbance at an absorption wavelength of 550 nm was measured to determine the cellular quantity as a protein amount (Journal of National Cancer Institute. Vol. 82, pp. 1107-1112, 1990). […]

[3] = tested on: BT-474 breast cancer cell; test: Sulphorhodamine-B (SRB) cell proliferation assay; assay type: cell-based; details: Homo sapiens, BT-474, 120 h; HER2-expressing cell; cultured for five days; SRB staining
Description: as §3

[4] = tested on: Akt; test: Western blotting of phosphorylated Akt in BT-474 cells; assay type: cell-based, human; details: Example 2, 4-fold dilution series from 1 µmol/L in 5 steps, 2 hours
Description: as §1, §2

[5] = tested on: phosphorylated AMPK; test: Western blotting of phosphorylated AMPK in BT-474 cells; assay type: cell-based, human; details: Example 6, 1, 0.333, 0.111, 0.033 and 0.011 µmol/L, two hours
Description: (§4) Human HER2-expressing human breast cancer cell line BT-474 (purchased from American Tissue Culture Collection (ATCC)) was seeded into a 24-multiwell plate (BT-474: 1.2 x 10^5 cells/well), and cultured overnight in a carbon dioxide gas incubator (5% CO2, 37°C). Mitochondrial respiratory chain complex 1-inhibiting compound rotenone (Wako Pure Chemical Industries) was added in 5 steps at final concentrations of 1, 0.333, 0.111, 0.033 and 0.011 µmol/L while continuing culture. Two hours later, the broth was removed and the cells were lysed with an SDS sample buffer (200 µL). Then, this cell lysate was used to perform western blotting analysis. Specifically, this cell lysate (8 µL) was separated by an SDS-PAGE method (gel concentration: 7.5-15%) (Analytical Biochemistry, No. 166, pp. 368-379, 1987) and transferred to a nitrocellulose membrane (BioRad). Then, an antibody specific to phosphorylated HER2 (Cell signaling technology, Code# 2244), an AMPK antibody specific to AMPK (Cell signaling technology, Code# 2535) and an anti-phosphorylated AMPK antibody specific to phosphorylated AMPK (Cell signaling technology, Code# 2532) were used to detect the antibody by chemiluminescent detection with an ECL system (Amersham) to quantify an amount of phosphorylated protein with LAS-1000 plus image analysis device (FUJIFILM).

[6] = tested on: AMPK; test: Western blotting of AMPK protein amount in BT-474 cells; assay type: cell-based, human; details: Example 6, 1, 0.333, 0.111, 0.033 and 0.011 µmol/L, two hours
Description: as §4

[7] = tested on: HER2; test: Western blotting of phosphorylated HER2 in BT-474 cells; assay type: cell-based, human
Description: as §1, §2, §4
Human HER2-expressing human breast cancer cell line BT-474 (purchased from American Tissue Culture Collection (ATCC)) was seeded into a 24-multiwell plate (BT-474: 1.2 x 10^5 cells/well) and cultured overnight in a carbon dioxide gas incubator (5% CO2, 37°C). […]

[8] = tested on: EGFR; test: Western blotting of phosphorylated EGFR in A431 cells; assay type: cell-based, human; details: Example 9, 4-fold dilution series from 1 µmol/L in 5 steps, 2 hours
Description: Human EGFR-expressing human epidermal cancer cell line A431 (purchased from American Tissue Culture Collection (ATCC)) was seeded into a 24-multiwell plate (A431:6x10^4 cells/well), and cultured overnight in a carbon dioxide gas incubator (5% CO2, 37°C). A 4-fold dilution series of a mitochondria complex-inhibiting compound (complex I: rotenone, Wako Pure Chemical Industries) was added in 5 steps starting from a final concentration of 1 µmol/L while continuing culture. The broth was removed 2 hours later, and cells were lysed with an SDS sample buffer (200 µL). Western blotting analysis was conducted as follows. Specifically, this cell lysate (8 µL) was separated by an SDS-PAGE method (gel concentration: 7.5-15%) (Analytical Biochemistry, No. 166, pp. 368-379, 1987) and transferred onto a nitrocellulose membrane (BioRad). Subsequently, an antibody specific to phosphorylated EGFR (Cell signaling technology, Code# 2232) was used to detect an antibody with an ECL system (Amersham) to quantify the amount of phosphorylated protein by an image analysis.

## C=C(C)[C@H]1Cc2c(ccc3c2O[C@@H]2COc4cc(OC)c(OC)cc4[C@@H]2C3=O)O1 [rotenone]
[1]
  MAPK phosphorylation: suppressions of Akt and MAPK phosphorylations were also confirmed
[2]
  IC50: 500 nM
[3]
  IC50: 4 nM
[4]
  Akt phosphorylation: suppressions of Akt and MAPK phosphorylations were also confirmed
[5]
  amount of AMPK phosphorylation: increased dose-dependently
[6]
  amount of AMPK protein itself: A quantitative change was not observed
[7]; Example 2, 4-fold dilution series from 1 µmol/L in 5 steps, 2 hours
  HER2 phosphorylation: suppression of HER2 phosphorylation was confirmed
[7]; Example 6, 1, 0.333, 0.111, 0.033 and 0.011 µmol/L, two hours
  HER2 phosphorylation: decreased dose-dependently
[8]
  EGFR phosphorylation: No suppression of EGFR phosphorylation was observed
